# In patent US20160296498A1, “Ketorolac Sublingual Spray Formulations” (Insys Development Company, Inc., priority 2015, published 2016):
# Test: Room temperature storage of ketorolac formulated at different pH
# Format: physicochemical
# Conditions: formulated with a pH of less than 5 or greater than 9
smiles,measurement,value
"O=C(c1ccccc1)c1ccc2n1CCC2C(=O)O (stereo not shown) [ketorolac, Ketorolac]",degradation when stored at room temperature,would degrade
